Laboratory results published in US20160106695A1, “PETROSELINIC ACID OR A COMBINATION OF ACTIVE INGREDIENTS COMPRISING AT LEAST PETROSELINIC ACID FOR PROMOTING WEIGHT LOSS AND/OR WEIGHT MAINTENANCE” (NESTEC SA, priority 2013, published 2016).

System: lipoxin A4 production by mononuclear blood cells
Experiment: Synthesis/release of lipoxin A4 by stimulated (PMA/A23187 + DHA/EPA) mononuclear blood cells, LC-MS quantification
Format: cell-based
Details: 30 min pre-incubation, 2 hours of stimulation
Description: Mononuclear blood cells are cultured under 5% CO2 and at 37° C. in a serum-free medium for macrophages (SFM Macrophage; Invitrogen 12065074) for 24 hours.
After this step, the medium is replaced with the same fresh test medium also containing the active agents at the various doses for 30 minutes in the presence of the various products to be evaluated, as indicated in the table of results below. The inflammatory response was then triggered in the presence of phorbol myristate (0.05 μM) and calcium ionophore (1 μM) and of a lipid substrate mixture composed of docosahexaenoic acid (DHA—1 μg/mL) and eicosapentaenoic acid (EPA—1 μg/mL).
The supernatants were then collected after 2 hours of stimulation and frozen at −80° C. before preparation for analysis by mass spectrometry.
Experimental triplicates (three wells) were prepared per experimental condition. Into each culture plate was placed a control corresponding to cells stimulated with the PMA/A23187 mixture and/or with addition of the equimolar mixture of fatty acids.
The thawed supernatants were concentrated by solid-phase extraction (SPE) and taken up in methanol before spectrometric analysis. The analytical method used consists in separating the various analytes by high-pressure liquid chromatography as a function of their retention time and in quantifying them by mass spectrometry. […]

| Molecule | Level of lipoxin A4 production (% modulation relative to the control) (taurine 3.1 mg/ml) | Level of lipoxin A4 production (% modulation relative to the control) (zinc gluconate 0.005 mg/ml) |
| --- | --- | --- |
| NCCS(=O)(=O)O [Taurine] | +38% | – |
| Zinc gluconate | – | −5% |
